Results from patent publication US9247759B2, “Identification of human T2R receptors that respond to bitter compounds that elicit the bitter taste in compositions, and the use thereof in assays to identify compounds that inhibit (block) bitter taste in compositions and use thereof” (SENOMYX, INC., priority 2007, dated 2016).

Assays:
hT2R51 = hT2R51 (Homo sapiens (Human), UniProt P59533); test: hT2R panel inhibition, transient HEK293 G16g44, agonist Prop 2.5 μM; format: cell-based; conditions: HEK293, compound at 25 μM; receptor activated to EC80 with the corresponding agonist; read-out: screening result against bitter receptor 51
Procedure: (§1) Specifically, in order to evaluate the inhibitory selectivity of the Compound C compound, this compound was tested against 22 human T2Rs which were deorphaned by Senomyx. These receptors and the bitter ligands that activate these human T2Rs are reported in earlier patent applications which are incorporated by reference herein. These 22 human T2Rs are hT2R1, 3, 4, 5, 7, 8, 9, 10, 13, 14, 16, 44, 51, 54, 55, 61, 63, 64, 65, 67, 71 and 75. The amino acid and nucleic acid sequences of all of these T2Rs may be found in these earlier patent applications. These human T2Rs were each individually transiently transfected into HEK293 cells that stably express the promiscuous G protein G16g44 and functional assays were effected using these receptors as disclosed in these same patent applications. […] The ligands were used at EC80 concentration levels. The list of bitter ligands utilized and the tested ligand concentrations are contained in Table 5 of this example.
(§2) Relating to the foregoing, FIG. 5 contains experimental results wherein Compound C was tested with different agonist compounds. The inhibition activity is represented by the reduction of receptor activity in the presence of Compound C. […] These 13 hT2Rs are hT2R3, 7, 10, 14, 16, 44, 51, 55, 61, 63, 64, 65, and 71.

hT2R75 = hT2R75 (Homo sapiens (Human), UniProt P59540); test: hT2R panel inhibition, transient HEK293 G16g44, agonist Strychnine 1 μM; format: cell-based; conditions: HEK293, read-out: screening result against bitter receptor 75, compound at 25 μM; receptor activated to EC80 with the corresponding agonist
Procedure: as §1, §2

hT2R67 = test: hT2R panel inhibition, transient HEK293 G16g44, agonist Andrographolide 5 μM; format: cell-based, human; conditions: compound at 25 μM; receptor activated to EC80 with the corresponding agonist
Procedure, shortened: (§3)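 Each of 22 human bitter receptors was expressed individually by transient transfection in cells stably carrying the promiscuous G protein. Agonists were applied at EC80, and inhibition was scored as the drop in receptor activity with the test compound present.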

hT2R7 = hT2R7 (Homo sapiens (Human), UniProt Q9NYW3); test: hT2R panel inhibition, transient HEK293 G16g44, agonist Chloroquine pH6.5 10 mM; format: cell-based; conditions: HEK293, compound at 25 μM; receptor activated to EC80 with the corresponding agonist; read-out: screening result against bitter receptor 7
Procedure, shortened: as §3

hT2R61 = hT2R61 (Homo sapiens (Human), UniProt P59537); test: hT2R panel inhibition, transient HEK293 G16g44, agonist Aristolochic Acid 25 nM; format: cell-based; conditions: HEK293, compound at 25 μM; receptor activated to EC80 with the corresponding agonist; read-out: screening result against bitter receptor 61
Procedure, shortened: as §3

hT2R5 = hT2R5 (Homo sapiens (Human), UniProt Q9NYW4); test: hT2R panel inhibition, transient HEK293 G16g44, agonist Picoline 10 mM; format: cell-based; conditions: HEK293, compound at 25 μM; receptor activated to EC80 with the corresponding agonist; read-out: screening result against bitter receptor 5
Procedure, shortened: as §3

hT2R16 = hT2R16 (Homo sapiens (Human), UniProt Q9NYV7); test: hT2R panel inhibition, transient HEK293 G16g44, agonist Salicin 1 mM; format: cell-based; conditions: HEK293, compound at 25 μM; receptor activated to EC80 with the corresponding agonist; read-out: screening result against bitter receptor 16
Procedure, shortened: as §3

hT2R14 = hT2R14 (Homo sapiens (Human), UniProt Q9NYV8); test: hT2R panel inhibition, transient HEK293 G16g44, agonist Aristolochic Acid 2 μM; format: cell-based; conditions: HEK293, compound at 25 μM; receptor activated to EC80 with the corresponding agonist; read-out: screening result against bitter receptor 14
Procedure, shortened: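 Each hT2R was transiently transfected into HEK293 cells stably expressing G16g44 and assayed functionally for inhibition of agonist response. Agonists were applied at EC80: andrographolide at 0.5 mM for hT2R8 and aristolochic acid at 2 μM for hT2R14.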

hT2R63 = test: hT2R panel inhibition, transient HEK293 G16g44, agonist Caffeine 1 mM or Andrographolide 100 μM; format: cell-based, human; conditions: compound at 25 μM; receptor activated to EC80 with the corresponding agonist
Procedure, shortened: as §3

hT2R55 = test: hT2R panel inhibition, transient HEK293 G16g44, agonist Cinchonine 150 μM; format: cell-based, human; conditions: compound at 25 μM; receptor activated to EC80 with the corresponding agonist
Procedure, shortened: as §3

hT2R65 = test: hT2R panel inhibition, transient HEK293 G16g44, agonist Oleuropein 1 mM; format: cell-based, human; conditions: compound at 25 μM; receptor activated to EC80 with the corresponding agonist
Procedure, shortened: as §3

hT2R54 = test: hT2R panel inhibition, transient HEK293 G16g44, agonist Ranitidine 5 mM; format: cell-based, human; conditions: compound at 25 μM; receptor activated to EC80 with the corresponding agonist
Procedure: as §1, §2

hT2R71 = hT2R71 (Homo sapiens (Human), UniProt P59536); test: hT2R panel inhibition, transient HEK293 G16g44, agonist Picric Acid 10 μM; format: cell-based; conditions: HEK293, compound at 25 μM; receptor activated to EC80 with the corresponding agonist; read-out: screening result against bitter receptor 71
Procedure, shortened: as §3

hT2R3 = hT2R3 (Homo sapiens (Human), UniProt Q9NYW6); test: hT2R panel inhibition, transient HEK293 G16g44, agonist Chloroquine pH6.5 50 μM; format: cell-based; conditions: HEK293, compound at 25 μM; receptor activated to EC80 with the corresponding agonist; read-out: screening result against bitter receptor 3
Procedure, shortened: as §3

hT2R64 = hT2R64 (Homo sapiens (Human), UniProt P59538); test: hT2R panel inhibition, transient HEK293 G16g44, agonist Aristolochic Acid 1 μM; format: cell-based; conditions: HEK293, compound at 25 μM; receptor activated to EC80 with the corresponding agonist; read-out: screening result against bitter receptor 64
Procedure, shortened: as §3

hT2R10 = hT2R10 (Homo sapiens (Human), UniProt Q9NYW0); test: hT2R panel inhibition, transient HEK293 G16g44, agonist Strychnine 50 μM; format: cell-based; conditions: HEK293, read-out: screening result against bitter receptor 10, compound at 25 μM; receptor activated to EC80 with the corresponding agonist
hT2R44 = test: hT2R panel inhibition, transient HEK293 G16g44, agonist Denatonium 0.5 μM; format: cell-based, human; conditions: compound at 25 μM; receptor activated to EC80 with the corresponding agonist
Procedure, shortened: as §3

hT2R4 = hT2R4 (Homo sapiens (Human), UniProt Q9NYW5); test: hT2R panel inhibition, transient HEK293 G16g44, agonist Chloroquine pH6.5 5 mM; format: cell-based; conditions: HEK293, compound at 25 μM; receptor activated to EC80 with the corresponding agonist; class symbols; read-out: screening result against bitter receptor 4
Procedure: as §1, §2

hT2R10, sequence (Q9NYW0 whole entry): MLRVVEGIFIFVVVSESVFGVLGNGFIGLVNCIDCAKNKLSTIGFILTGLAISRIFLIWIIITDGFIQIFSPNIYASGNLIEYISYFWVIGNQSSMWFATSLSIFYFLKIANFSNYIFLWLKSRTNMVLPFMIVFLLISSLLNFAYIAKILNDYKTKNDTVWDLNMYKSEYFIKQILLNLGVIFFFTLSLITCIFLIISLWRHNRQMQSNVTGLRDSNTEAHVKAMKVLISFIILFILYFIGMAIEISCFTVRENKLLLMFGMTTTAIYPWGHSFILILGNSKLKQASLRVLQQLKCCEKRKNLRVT
hT2R3, sequence (Q9NYW6 whole entry): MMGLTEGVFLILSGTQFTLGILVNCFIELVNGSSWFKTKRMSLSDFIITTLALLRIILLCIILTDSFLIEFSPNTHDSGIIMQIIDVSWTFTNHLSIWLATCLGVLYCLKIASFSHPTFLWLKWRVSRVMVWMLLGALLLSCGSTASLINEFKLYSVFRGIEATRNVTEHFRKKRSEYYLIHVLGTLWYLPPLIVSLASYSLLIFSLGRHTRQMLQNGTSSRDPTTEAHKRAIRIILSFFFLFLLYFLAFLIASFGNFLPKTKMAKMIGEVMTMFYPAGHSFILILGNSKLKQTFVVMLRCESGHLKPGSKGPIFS
hT2R71, sequence (P59536 whole entry): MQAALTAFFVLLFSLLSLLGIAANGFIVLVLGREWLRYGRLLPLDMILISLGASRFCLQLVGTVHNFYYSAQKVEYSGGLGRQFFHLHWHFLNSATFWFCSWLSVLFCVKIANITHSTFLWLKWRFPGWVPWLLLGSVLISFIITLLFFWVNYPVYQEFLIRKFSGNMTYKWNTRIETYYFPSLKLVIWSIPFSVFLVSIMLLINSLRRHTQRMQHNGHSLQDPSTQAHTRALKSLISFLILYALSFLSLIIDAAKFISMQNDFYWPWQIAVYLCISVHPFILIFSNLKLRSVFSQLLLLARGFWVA
hT2R64, sequence (P59538 whole entry): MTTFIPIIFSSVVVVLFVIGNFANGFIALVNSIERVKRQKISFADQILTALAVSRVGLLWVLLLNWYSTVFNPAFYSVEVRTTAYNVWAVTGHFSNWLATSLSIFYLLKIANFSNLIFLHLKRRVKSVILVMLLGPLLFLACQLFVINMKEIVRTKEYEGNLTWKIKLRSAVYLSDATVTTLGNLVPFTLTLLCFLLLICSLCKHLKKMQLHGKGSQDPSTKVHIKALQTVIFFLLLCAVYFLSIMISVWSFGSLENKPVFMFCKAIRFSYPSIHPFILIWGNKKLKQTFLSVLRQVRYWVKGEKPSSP
hT2R51, sequence (P59533 whole entry): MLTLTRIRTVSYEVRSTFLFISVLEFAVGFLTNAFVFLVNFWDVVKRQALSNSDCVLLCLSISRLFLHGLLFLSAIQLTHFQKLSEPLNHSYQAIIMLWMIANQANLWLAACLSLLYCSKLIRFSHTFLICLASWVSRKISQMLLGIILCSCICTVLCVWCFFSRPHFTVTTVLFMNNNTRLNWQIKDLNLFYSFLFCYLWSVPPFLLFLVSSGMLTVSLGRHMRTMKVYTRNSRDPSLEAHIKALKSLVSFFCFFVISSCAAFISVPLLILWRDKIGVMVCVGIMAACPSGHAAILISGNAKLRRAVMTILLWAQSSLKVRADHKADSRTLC
hT2R5, sequence (Q9NYW4 whole entry): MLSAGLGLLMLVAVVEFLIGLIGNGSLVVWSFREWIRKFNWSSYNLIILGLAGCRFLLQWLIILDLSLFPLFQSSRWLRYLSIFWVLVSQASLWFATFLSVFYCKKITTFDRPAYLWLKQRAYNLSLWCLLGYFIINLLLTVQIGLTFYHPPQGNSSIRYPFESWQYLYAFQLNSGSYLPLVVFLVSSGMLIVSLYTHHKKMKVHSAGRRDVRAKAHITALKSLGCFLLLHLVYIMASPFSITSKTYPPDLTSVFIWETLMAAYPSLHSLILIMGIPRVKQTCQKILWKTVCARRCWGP
hT2R14, sequence (Q9NYV8 whole entry): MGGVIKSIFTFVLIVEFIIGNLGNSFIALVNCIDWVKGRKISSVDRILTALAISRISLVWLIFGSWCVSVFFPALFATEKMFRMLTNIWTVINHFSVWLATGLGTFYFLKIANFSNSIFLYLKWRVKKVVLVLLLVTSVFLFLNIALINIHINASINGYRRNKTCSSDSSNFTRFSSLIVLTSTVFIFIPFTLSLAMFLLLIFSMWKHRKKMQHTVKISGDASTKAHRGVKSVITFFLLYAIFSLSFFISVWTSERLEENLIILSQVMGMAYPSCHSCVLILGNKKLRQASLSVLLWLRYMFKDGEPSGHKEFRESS
hT2R7, sequence (Q9NYW3 whole entry): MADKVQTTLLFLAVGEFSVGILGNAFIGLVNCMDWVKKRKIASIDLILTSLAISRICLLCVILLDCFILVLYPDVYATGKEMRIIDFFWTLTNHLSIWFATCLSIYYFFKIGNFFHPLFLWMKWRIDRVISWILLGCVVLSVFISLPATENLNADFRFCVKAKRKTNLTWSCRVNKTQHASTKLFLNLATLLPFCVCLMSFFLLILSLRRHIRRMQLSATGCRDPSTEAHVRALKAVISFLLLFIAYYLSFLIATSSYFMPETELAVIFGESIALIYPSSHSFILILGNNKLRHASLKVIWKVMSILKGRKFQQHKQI
hT2R61, sequence (P59537 whole entry): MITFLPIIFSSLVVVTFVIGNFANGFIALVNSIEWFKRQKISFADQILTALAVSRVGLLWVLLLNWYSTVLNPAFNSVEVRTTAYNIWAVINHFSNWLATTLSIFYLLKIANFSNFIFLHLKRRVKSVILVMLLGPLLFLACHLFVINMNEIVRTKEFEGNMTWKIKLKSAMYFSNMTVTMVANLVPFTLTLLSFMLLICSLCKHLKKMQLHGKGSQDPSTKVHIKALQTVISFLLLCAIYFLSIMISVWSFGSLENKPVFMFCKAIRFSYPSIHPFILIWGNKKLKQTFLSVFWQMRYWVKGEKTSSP
hT2R75, sequence (P59540 whole entry): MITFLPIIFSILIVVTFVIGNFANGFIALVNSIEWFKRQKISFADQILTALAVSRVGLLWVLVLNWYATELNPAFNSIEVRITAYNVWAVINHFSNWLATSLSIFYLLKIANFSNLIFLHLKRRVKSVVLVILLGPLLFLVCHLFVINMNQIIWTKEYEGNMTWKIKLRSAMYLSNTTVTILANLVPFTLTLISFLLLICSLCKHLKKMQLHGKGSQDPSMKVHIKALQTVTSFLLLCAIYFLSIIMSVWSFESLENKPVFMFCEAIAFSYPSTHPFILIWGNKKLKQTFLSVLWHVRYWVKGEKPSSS
hT2R16, sequence (Q9NYV7 whole entry): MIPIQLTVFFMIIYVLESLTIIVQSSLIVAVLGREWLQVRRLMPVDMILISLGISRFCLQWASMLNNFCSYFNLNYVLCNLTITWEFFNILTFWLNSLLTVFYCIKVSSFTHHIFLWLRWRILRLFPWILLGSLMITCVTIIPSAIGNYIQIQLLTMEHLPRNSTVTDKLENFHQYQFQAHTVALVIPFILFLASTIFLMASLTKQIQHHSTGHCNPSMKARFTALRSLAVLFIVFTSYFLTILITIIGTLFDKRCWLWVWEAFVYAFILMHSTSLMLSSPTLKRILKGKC
hT2R4, sequence (Q9NYW5 whole entry): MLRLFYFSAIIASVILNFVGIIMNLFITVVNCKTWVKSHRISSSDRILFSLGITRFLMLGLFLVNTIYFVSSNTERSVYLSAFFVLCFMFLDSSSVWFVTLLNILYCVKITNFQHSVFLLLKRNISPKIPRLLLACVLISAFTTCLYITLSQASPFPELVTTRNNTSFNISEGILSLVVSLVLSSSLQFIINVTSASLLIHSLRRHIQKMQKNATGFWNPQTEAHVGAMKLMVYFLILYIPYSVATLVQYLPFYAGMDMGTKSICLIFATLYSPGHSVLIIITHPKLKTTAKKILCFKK

Structure (SMILES) | inhibition at 25 µM (hT2R51) [%] | inhibition at 25 µM (hT2R75) [%] | screening result against bitter receptor 67 (hT2R67) | inhibition at 25 µM (hT2R7) [%] | inhibition at 25 µM (hT2R61) [%] | inhibition at 25 µM (hT2R5) [%] | inhibition at 25 µM (hT2R16) [%] | inhibition at 25 µM (hT2R14) [%] | screening result against bitter receptor 63 (hT2R63) | screening result against bitter receptor 55 (hT2R55) | screening result against bitter receptor 65 (hT2R65) | screening result against bitter receptor 54 (hT2R54) | inhibition at 25 µM (hT2R71) [%] | inhibition at 25 µM (hT2R3) [%] | inhibition at 25 µM (hT2R64) [%] | inhibition at 25 µM (hT2R10) [%] | screening result against bitter receptor 44 (hT2R44) | inhibition at 25 µM (hT2R4) [%]
Cc1cccc(CN(Cc2ccccc2)S(=O)(=O)c2ccc(C(=O)O)cc2)c1 [Example 5-73, 4-(N-benzyl-N-(3-methylbenzyl)sulfamoyl)benzoic acid] | > 80 | 20 to 40 | + (20% to 40% inhibition = +) | 20 to 40 | 60 to 80 | 20 to 40 | 20 to 40 | > 80 | ++++ (80% or greater inhibition = ++++) | ++ (40% to 60% inhibition = ++) | ++ (40% to 60% inhibition = ++) | +++ (60% to 80% inhibition = +++) | 40 to 60 | 40 to 60 | 20 to 40 | 40 to 60 | – | –
COc1ccccc1CN(Cc1ccccc1)S(=O)(=O)c1ccc(C(=O)O)cc1 [Example 5-71, 4-(N-benzyl-N-(2-methoxybenzyl)sulfamoyl)benzoic acid] | 40 to 60 | 20 to 40 | + (20% to 40% inhibition = +) | 20 to 40 | > 80 | 20 to 40 | 20 to 40 | > 80 | ++++ (80% or greater inhibition = ++++) | ++ (40% to 60% inhibition = ++) | ++ (40% to 60% inhibition = ++) | +++ (60% to 80% inhibition = +++) | 40 to 60 | 20 to 40 | 20 to 40 | 20 to 40 | – | –
COc1ccc(CN(Cc2ccccc2Cl)S(=O)(=O)c2ccc(C(=O)O)cc2)cc1 [Example 5-68, 4-(N-(2-chlorobenzyl)-N-(4-methoxybenzyl)sulfamoyl)benzoic acid] | 20 to 40 | 20 to 40 | + (20% to 40% inhibition = +) | 20 to 40 | 60 to 80 | 40 to 60 | 20 to 40 | > 80 | ++++ (80% or greater inhibition = ++++) | ++++ (80% or greater inhibition = ++++) | + (20% to 40% inhibition = +) | + (20% to 40% inhibition = +) | 60 to 80 | 20 to 40 | 60 to 80 | 20 to 40 | ++ (40% to 60% inhibition = ++) | –
COc1ccc(CN(Cc2ccccc2OC)S(=O)(=O)c2ccc(C(=O)O)cc2)cc1 [Example 5-58, 4-(N-(2-methoxybenzyl)-N-(4-methoxybenzyl)sulfamoyl)benzoic acid] | 20 to 40 | 20 to 40 | + (20% to 40% inhibition = +) | 60 to 80 | > 80 | 20 to 40 | 20 to 40 | > 80 | ++++ (80% or greater inhibition = ++++) | +++ (60% to 80% inhibition = +++) | ++++ (80% or greater inhibition = ++++) | +++ (60% to 80% inhibition = +++) | > 80 | 60 to 80 | 60 to 80 | 60 to 80 | +++ (60% to 80% inhibition = +++) | –
COc1ccc(CN2C(=O)N(c3ccc(C(=O)O)cc3)C(=O)C2Cc2ccccc2)cc1 (stereo not drawn) [Example 5-98, 4-(4-benzyl-3-(4-methoxybenzyl)-2,5-dioxoimidazolidin-1-yl)benzoic acid] | – | – | – | – | > 80 | – | – | – | – | ++++ (80% or greater inhibition = ++++) | – | – | – | 20 to 40 | 60 to 80 | – | +++ (60% to 80% inhibition = +++) | 40 to 60
O=C(O)c1ccc(S(=O)(=O)N(Cc2ccccc2)Cc2ccccc2Cl)cc1 [Example 5-83, 4-(N-benzyl-N-(2-chlorobenzyl)sulfamoyl)benzoic acid] | 20 to 40 | 40 to 60 | ++ (40% to 60% inhibition = ++) | 20 to 40 | > 80 | 20 to 40 | 40 to 60 | > 80 | +++ (60% to 80% inhibition = +++) | +++ (60% to 80% inhibition = +++) | +++ (60% to 80% inhibition = +++) | ++ (40% to 60% inhibition = ++) | 20 to 40 | 40 to 60 | 20 to 40 | 40 to 60 | + (20% to 40% inhibition = +) | –
O=C(O)c1ccc(S(=O)(=O)N(Cc2ccccc2)Cc2cccc(Cl)c2)cc1 [Example 5-84, 4-(N-benzyl-N-(3-chlorobenzyl)sulfamoyl)benzoic acid] | 60 to 80 | 20 to 40 | + (20% to 40% inhibition = +) | – | > 80 | 20 to 40 | 20 to 40 | > 80 | +++ (60% to 80% inhibition = +++) | +++ (60% to 80% inhibition = +++) | +++ (60% to 80% inhibition = +++) | ++ (40% to 60% inhibition = ++) | 20 to 40 | 40 to 60 | 20 to 40 | 20 to 40 | + (20% to 40% inhibition = +) | –
